Experimental data from PMC12279193 (Advanced Science, 2025).

Tests used:
HCoV-OC43 spike protein = target: T1, HCoV-OC43 spike protein (Human coronavirus OC43, UniProt P36334); assay type: binding
T1 construct: gene S

[1] = target: S-RBD protein; SARS-CoV-2 RBD (Severe acute respiratory syndrome coronavirus 2, UniProt P0DTC2); assay: 1H CPMG and STD NMR; DARTS; assay type: binding; conditions: 200 µM S416, 5 µM RBD, PBS in D2O, 5% DMSO-d6, 25 °C

T1 sequence (P36334 14-1297): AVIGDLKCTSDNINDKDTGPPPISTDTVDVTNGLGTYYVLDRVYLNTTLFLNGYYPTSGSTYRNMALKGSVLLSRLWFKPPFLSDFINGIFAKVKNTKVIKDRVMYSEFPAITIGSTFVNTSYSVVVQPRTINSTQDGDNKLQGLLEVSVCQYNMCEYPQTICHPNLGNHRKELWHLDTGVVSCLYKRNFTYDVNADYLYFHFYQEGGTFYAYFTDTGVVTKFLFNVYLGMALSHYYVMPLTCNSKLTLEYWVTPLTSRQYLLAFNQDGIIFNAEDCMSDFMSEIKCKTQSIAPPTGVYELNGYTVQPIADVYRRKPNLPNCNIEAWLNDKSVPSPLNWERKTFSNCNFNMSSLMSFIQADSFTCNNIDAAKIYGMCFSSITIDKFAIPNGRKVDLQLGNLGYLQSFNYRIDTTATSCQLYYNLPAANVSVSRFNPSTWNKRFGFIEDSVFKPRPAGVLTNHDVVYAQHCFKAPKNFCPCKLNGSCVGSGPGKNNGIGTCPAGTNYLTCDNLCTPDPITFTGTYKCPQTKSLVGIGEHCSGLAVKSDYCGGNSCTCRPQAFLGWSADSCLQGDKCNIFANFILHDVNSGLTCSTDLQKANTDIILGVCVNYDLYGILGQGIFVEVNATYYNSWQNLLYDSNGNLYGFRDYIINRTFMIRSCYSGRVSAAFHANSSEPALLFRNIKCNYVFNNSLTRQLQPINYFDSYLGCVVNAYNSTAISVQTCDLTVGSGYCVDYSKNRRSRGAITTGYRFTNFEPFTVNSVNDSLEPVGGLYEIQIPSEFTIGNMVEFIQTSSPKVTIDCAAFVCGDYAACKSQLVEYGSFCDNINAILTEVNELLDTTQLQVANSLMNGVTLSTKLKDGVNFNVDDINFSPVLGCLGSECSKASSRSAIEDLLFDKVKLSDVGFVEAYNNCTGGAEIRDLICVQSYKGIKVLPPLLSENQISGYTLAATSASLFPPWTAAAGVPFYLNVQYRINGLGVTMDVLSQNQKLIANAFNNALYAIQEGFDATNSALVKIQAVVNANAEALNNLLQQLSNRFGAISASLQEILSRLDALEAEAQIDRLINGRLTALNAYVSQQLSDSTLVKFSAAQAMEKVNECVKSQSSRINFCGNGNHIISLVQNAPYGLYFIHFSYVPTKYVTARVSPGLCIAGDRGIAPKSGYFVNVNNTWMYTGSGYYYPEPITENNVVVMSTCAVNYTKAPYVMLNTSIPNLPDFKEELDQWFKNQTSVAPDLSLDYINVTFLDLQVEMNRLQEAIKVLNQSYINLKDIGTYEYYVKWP

## CN(/N=C/c1ccccc1C(=O)O)c1nc(-c2ccccc2Cl)cs1 [S416]
HCoV-OC43 spike protein
  Kd: 33.3 µM
[1]
  1H CPMG and STD NMR; DARTS: confirmed that S416 could indeed bind to RBD directly
